Values of other authors, collected in US8383697B2 (priority 2009, dated 2013).

Experiments:
rats = details: in vivo
[1] = in vivo

SMILES	Rat Oral LD50 (rats)	LD50 [1] [mg/kg]
CC(C)(C)OOC(C)(C)C [Initiator X, tert-butyl peroxide]	25,000 mg/kg	
CCO [ethanol]		7060
CCCCCCCCCCCC(=O)OOC(=O)CCCCCCCCCCC [Initiator VIII, lauroyl peroxide]	10,000 mg/kg	
O=C(OOC(=O)c1ccccc1)c1ccccc1 [Initiator VII, benzoyl peroxide]	7,710 mg/kg	
CC(C)(C)OOC(=O)c1ccccc1 [Initiator XI, tert-butyl peroxybenzoate]	4,160 mg/kg	
